Results: patent US20100035762A1, “Prognostic Methods in Colorectal Cancer” (Oryzon Genomics, S.A., priority 2006, published 2010)

Key:
[1] = test system: EphB4 gene expression in SW620 cells; assay: Treatment of colorectal cancer cell line SW620, EphB4 gene expression by RT-PCR; type: cell-based; details: 72 h
Protocol: (§1) Top panel: changes in gene expression a measured by RT-PCR. Lower panel: changes in methylation a measure by PCR on bisulfite treated DNA with methylation specific primers.
(§2) Cultures of the colorectal cancer cell line SW620, characterized by a low expression level and methylation the EphB4 promoter; were treated during 72 h with different concentrations of 5aza- cytidin.

EphB4 promoter = assay: Treatment of SW620, EphB4 promoter methylation by PCR on bisulfite treated DNA with methylation specific primers; type: cell-based; details: SW620 cells
Protocol: as §1, §2

For `Nc1ncn([C@@H]2O[C@H](CO)[C@@H](O)[C@H]2O)c(=O)n1` [5-aza-cytidine], the “most effective dose for increase of EphB4 gene expression” value [1] was 10 µM, the “level of EphB4 gene expression” value ([1]; different concentrations) was “increase” and the “methylation of the EphB4 promoter” value (EphB4 promoter) was “reduces the methylation”.
